Reference: patent US20080095790A1, “Methods of Treating Prostate Cancer” (priority 2006, published 2008)

Legend:
[1] = test system: PSA-peptide tetramer+CD8+ cells; assay: PSA-peptide-HLA-A2 tetramer analysis of PBMC from vaccinated patients; type: in vivo, human; conditions: out of 28 patients (50%), week 26 and/or week 52
[2] = DTH skin testing with PSA-peptide; type: in vivo, human
Procedure: A total of 28 patients were vaccinated with PSA-peptide at three time points, i.e., weeks 1, 4 and 10 and DTH skin testing was performed on weeks 4, 14, 26 and 52.

DTH-derived T-cells = assay: Cytokine bead array (CBA) of DTH-derived T-cells cultured with peptide-pulsed T2 cells; type: cell-based, human
Procedure: Out-growth of T-cells was observed within 3 days. On day 4, 500 μl of the spent medium was aspirated and replenished with fresh medium plus IL-2 and cultured further for a total of 6-8 days, until the culture wells became confluent. […] Each cycle of stimulation was 7±1 days. Cytokines released into the culture supernatant, including IFN-γ, TNF-α, IL-4, IL-6 and IL-10, were measured concurrently by cytokine bead array (CBA) analysis (BD Biosciences, San Diego, Calif.). The antigen presenting cell line, T2 (ATCC, Manassas, Va.) was used as a stimulator and was pulsed with 20 μg/ml of PSA-peptide or control HLA-A2 binding peptide, HIV-RT476-484 or diluent alone (0.4% volume by volume). T2 cells (25,000/well) were cultured with DTH-derived T-cells (100,000/well) in complete medium containing 30 U/ml of IL-2 in a total volume of 1 ml per well in 48-well plates. […] Cells were incubated at 37° C. for 24 hours in 5% CO2 atmosphere. Supernatants were harvested and stored in sterile vials at −80° C. At the time of assay, samples were thawed and cytokines were measured using a CBA kit as per the manufacturer's protocol with a FACSCalibur flow cytometer (Becton Dickinson, Mountain View, Calif.).

T2 cells = assay: Chromium release assay (CRA), 4 hour; type: cell-based, human
Procedure: Specific cytolytic activity was analyzed by standard 4 hour CRA as previously described (Xue et al., (1997) Prostate 30:73). […] Supernatants recovered from CRA were assayed for gamma emission using a Top-count NXT scintillation counter (Packard, Meriden, Conn.) and the percent specific lysis was calculated as previously described (Xue et al., (1997) Prostate 30:73).

[3] = 6 out of 7 patients, after 1-3 cycles in vitro stimulation with PSA-peptide
[4] = four patients, after 1-3 cycles in vitro stimulation

KLQCVDLHV (listed as Homo sapiens) [PSA-peptide]
patients who developed ≧4 fold increases in CD8+ PSA-peptide specific tetramer cells [1]: 14 patients
DTH induration with increasing doses of peptide ([2]; 1 to 20 μg peptide, responding patients): increasing level of DTH induration
patients who developed positive DTH responses to PSA-peptide over time ([2]; of 28 patients (fifty percent), DTH testing weeks 4, 14, 26, 52): 14 patients
specific IFN-γ responses, median (DTH-derived T-cells; [3]): 163 pg/mL
specific IFN-γ responses, range over patients (DTH-derived T-cells; [3]): 85 to 1030 pg/mL
specific levels of IL-4, range over patients (DTH-derived T-cells; [4]): 18 to 486 pg/mL
specific levels of TNF-α, median (DTH-derived T-cells; [4]): 38 pg/mL
specific levels of TNF-α, range over patients (DTH-derived T-cells; [4]): 23 to 96 pg/mL
IL-6 expression (DTH-derived T-cells; one patient (UPIN 49)): Non-specific expression
patients whose DTH-derived T-cells showed specific IFN-γ responses (DTH-derived T-cells; out of 7 patients): 6 patients
cytokine responses against T2 cells pulsed with PSA-peptide compared to HIV-RT476-484 or no peptide (DTH-derived T-cells; patient UPIN55, cycle 0, without peptide priming in vitro): specific cytokine responses
lysis of PSA-peptide-pulsed T2 cells by sorted CD4−CD8+ T-cells, compared to HIV-RT476-484 or no peptide (T2 cells; 4 patients, 1-4 cycles in vitro stimulation): peptide-specific lysis
cytolytic activity of induced T-cells (T2 cells; patient UPIN40): modest cytolytic activity
cytolytic activity of induced T-cells (T2 cells; patients UPIN45, UPIN 55, UPIN 49): strongly cytolytic
